For nine compounds, IC50 results are on record in patent US11767322B2 (BRISTOL-MYERS SQUIBB COMPANY, priority 2020, dated 2023).

Where two headings read alike, the source gives them in different places.

For assay [1], the system named is MLKL phosphorylation in HT29-L23 human colorectal adenocarcinoma cells. Briefly: MLKL phosphorylation high-content assay. The conditions noted are these: necroptosis induced with TNFα, SMAC mimetic and Z-VAD, 6 h, maximal inhibition defined by Nec1s. The format is cell-based.
For assay [2], the target named is T1, His-GST-TVMV-hRIPK1(1-324) (Homo sapiens, UniProt Q13546).
T1 construct: The coding region of human RIPK1(1-324) flanked by NdeI site at 5′ end; made in house; host or cells: Spodoptera frugiperda Sf9 insect cells (baculovirus, Bac-to-Bac)
T1 sequence (Q13546 1-324): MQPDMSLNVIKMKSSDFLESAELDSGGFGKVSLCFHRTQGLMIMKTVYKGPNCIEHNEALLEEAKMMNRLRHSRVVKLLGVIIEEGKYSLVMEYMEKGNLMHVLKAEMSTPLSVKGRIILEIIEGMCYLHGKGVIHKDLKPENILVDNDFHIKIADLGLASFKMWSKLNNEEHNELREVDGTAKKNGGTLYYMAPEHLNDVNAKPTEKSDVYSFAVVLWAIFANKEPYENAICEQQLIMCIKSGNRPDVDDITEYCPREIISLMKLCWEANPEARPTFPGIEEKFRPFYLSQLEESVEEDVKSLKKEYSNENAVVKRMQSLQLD
Briefly: biochemical. Conditions: HTRF probe displacement, 1 h at rt; read-out: RIPK1 IC50. The format is binding.

Where [3] appears, read: read-out: pMLKL IC50, HT29-L23 cells.
Setting [4] is: Homo sapiens, read-out: pMLKL IC50, HT29-L23 cells.

Take `Nc1nc2cc(-c3ccc(Cl)c(C(=O)NCC(F)(F)C(O)c4cccc(Cl)c4F)c3F)ccn2n1` (single isomer, unassigned) [Example 170, 3-(2-amino-[1,2,4]triazolo[1,5-a]pyridin-7-yl)-6-chloro-N-(3-(3-chloro-2-fluorophenyl)-2,2-difluoro-3-hydroxypropyl)-2-fluorobenzamide]: the figures for the IC50 in assay [1] (setting [3]) and in assay [2] were 1.4 nM and 0.1 nM, respectively.
For `Nc1nc2cc(-c3ccc(Cl)c(C(=O)NCC(F)(F)C(O)c4cccc(C(F)(F)F)n4)c3F)ccn2n1` (single isomer, unassigned) [Example 255, 3-(2-amino-[1,2,4]triazolo[1,5-a]pyridin-7-yl)-6-chloro-N-(2,2-difluoro-3-hydroxy-3-(6-(trifluoromethyl)pyridin-2-yl)propyl)-2-fluorobenzamide], in that order: 79 nM and 17 nM.
For `Cc1ccc(-c2ccn3nc(N)nc3c2)c(F)c1C(=O)NCC(F)(F)C(O)c1ccnc(C(F)(F)F)c1` (single isomer, unassigned) [Example 261, 3-(2-amino-[1,2,4]triazolo[1,5-a]pyridin-7-yl)-N-(2,2-difluoro-3-hydroxy-3-(2-(trifluoromethyl)pyridin-4-yl)propyl)-2-fluoro-6-methylbenzamide], the IC50 in assay [1] (setting [3]) is 79 nM; in assay [2], 40 nM.
For the compound `Nc1nc2cc(-c3ccc(Cl)c(C(=O)NCC(F)(F)C(O)c4cccc(Cl)c4F)c3F)ccn2n1` (single isomer, unassigned) [Example 171, 3-(2-amino-[1,2,4]triazolo[1,5-a]pyridin-7-yl)-6-chloro-N-(3-(3-chloro-2-fluorophenyl)-2,2-difluoro-3-hydroxypropyl)-2-fluorobenzamide], the concentration for half-maximal inhibition (IC50) was determined as 10 nM in assay [1] (setting [3]) and 1.6 nM in assay [2].
Turning to `Cc1ccc(-c2ccn3nc(N)nc3c2)c(F)c1C(=O)NCCC(O)c1cccc(Cl)c1` (single isomer, unassigned) [Example 44, 3-(2-amino-[1,2,4]triazolo[1,5-a]pyridin-7-yl)-N-(3-(3-chlorophenyl)-3-hydroxypropyl)-2-fluoro-6-methylbenzamide], the figures for the IC50 in assay [1] (setting [3]) and in assay [2] were 2.5 nM and 1.3 nM, respectively.
In the case of `Nc1nc2cc(-c3ccc(Cl)c(C(=O)NCC(F)(F)C(O)c4cccc(Cl)c4)c3F)ccn2n1` (stereo not drawn) [Example 193, 3-(2-amino-[1,2,4]triazolo[1,5-a]pyridin-7-yl)-6-chloro-N-(3-(3-chlorophenyl)-2,2-difluoro-3-hydroxypropyl)-2-fluorobenzamide], the half-inhibitory concentration (IC50) turned out to be 15 nM in assay [1] (setting [3]) and 8.7 nM in assay [2].
In the case of `Nc1nc2cc(-c3ccc(Cl)c(C(=O)NCC(F)(F)C(O)C4CCC(F)(F)CC4)c3F)ccn2n1` (stereo not drawn) [Example 257, 3-(2-amino-[1,2,4]triazolo[1,5-a]pyridin-7-yl)-6-chloro-N-(3-(4,4-difluorocyclohexyl)-2,2-difluoro-3-hydroxypropyl)-2-fluorobenzamide], the half-inhibitory concentration (IC50) in assay [1] (setting [4]) is 5.9 nM; in assay [2], 8.9 nM.
As for `[2H]C([2H])([2H])c1ccc(-c2ccn3nc(N)nc3c2)c(F)c1C(=O)NC[C@@H](F)[C@@](C)(O)c1ccc(F)cc1` [Example 216, 3-(2-amino-[1,2,4]triazolo[1,5-a]pyridin-7-yl)-2-fluoro-N-((2R,3S)-2-fluoro-3-(4-fluorophenyl)-3-hydroxybutyl)-6-(methyl-d3)benzamide], the results for the concentration for half-maximal inhibition (IC50) in assay [1] (setting [4]) and in assay [2] were 0.4 nM and 4.7 nM, respectively.
For `Nc1nc2cc(-c3ccc(Cl)c(C(=O)NCC(F)(F)C(O)c4cccc(Cl)c4)c3F)ccn2n1` (stereo not drawn) [Example 192, 3-(2-amino-[1,2,4]triazolo[1,5-a]pyridin-7-yl)-6-chloro-N-(3-(3-chlorophenyl)-2,2-difluoro-3-hydroxypropyl)-2-fluorobenzamide], the IC50 stood at 1.2 nM in assay [1] (setting [3]) and 3.5 nM in assay [2].
